According to PMC9918186, “Interaction of Positively Charged Oligopeptides with Blood Plasma Proteins” (International Journal of Molecular Sciences, 2023):
Non-standard residues stand in square brackets, D forms with d. Residues, ends and D or L forms follow the SMILES beside them. Phe(2-F) = N[C@@H](Cc1ccccc1F)C(=O)O; Orn = NCCC[C@H](N)C(=O)O; Dab = NCC[C@H](N)C(=O)O

How the values were obtained:
[1] = biological target: bovine serum albumin (BSA) (Bos taurus, UniProt P02769); experiment: Fluorescence quenching of BSA by peptides L1–3
Description: Fluorescence spectroscopy was carried out to characterize the mechanism of the interaction between three plasma proteins, BSA, AAG, and GGF, with the studied peptides. The fluorescence spectra of protein were collected during titration of L1–L3. The excitation wavelength was set at λ = 280 nm (both Trp and Tyr residues were excited).
To confirm this, the fluorescence data were further analyzed by the Stern–Volmer Equation (1) after correction due to the infer filter effect (2):(1) F0/F=1+kqτ[Q]=1+KSV (2) Fcorr=Fobs10^(Aex+Aem)/2 where F0 and F are the fluorescence intensities (after correction) of the protein and protein in the presence of L1–3, respectively, kq is the quenching rate constant, τ0 the average lifetime, [Q] is the L1–3 concentration, Ksv is the Stern–Volmer constant, and Fcorr, and Fobs are the corrected and observed fluorescence intensities, respectively. Aex and Aem are the absorbance values at excitation and emission wavelengths, respectively. A linear regression fit was used to calculate the value of the Stern–Volmer constant (Ksv). Then, assuming the average lifetime of the fluorophore in the excited state for a biomolecule as 10^−8 s, the quenching rate constant (kq) was computed. For dynamic quenching, the maximum scatters collision quenching rate constant for different quenchers with the biopolymers was reported to be 2 × 10^10 dm^3mol^−1s^−1 [55, 56]. […] Collisional quenching occurs when the excited-state fluorophore is deactivated by contact with some other molecule in solution (by collisions). […] This is a dynamic mechanism of quenching. The quenching constant characterizes the quenching mechanism. The maximum value for collisional quenching is 2 × 10^10 dm^3mol^−1s^−1. […] For further confirmation, measurements were made at, in addition to 297 K, temperatures 303 and 308 K. Experimental data points were fitted and analyzed using Equation (1).
Both for the complexes with BSA and with GGF, the binding constant (Kb) and the binding stoichiometry (n) were calculated. […] The values of Kb and n were calculated from the slope and the intercept of the log [(F0 − F)/F] versus log [Q] plot (Figure 2).
The forces involved in the interaction can be identified by measurement at different temperatures and then by thermodynamic analysis. The signs of the thermodynamic parameters identify the type of interactions. The enthalpy change (ΔH°), the entropic change (ΔS°), and the free energy change (ΔG°) were calculated from Equations (4) and (5):(4) […]=−ΔH^°/RT+ΔS^°/R (5) ΔG^°=ΔH^°−TΔS^°=−RTlnKb where Kb is the binding constant and R is the universal gas constant. To determine the thermodynamic parameters, the van’t Hoff plot was first conducted, i.e., the temperature dependence of the binding constant, according to Equation (4). The Kb values at the three temperatures were fitted by the linear regression method. The values of ΔH and ΔS were calculated from the slope and intercept at the fitted line. Next, the free energy change (ΔG°) was obtained from Equation (5).

BSA = biological target: T1, BSA (Bos taurus, UniProt P02769); settings: 298 K, one-to-one stoichiometry; cited from earlier work
T1 construct: purchased Sigma Aldrich
Description: The enthalpy change (ΔH°), the entropic change (ΔS°), and the free energy change (ΔG°) were calculated from Equations (4) and (5):(4) […]=−ΔH^°/RT+ΔS^°/R (5) ΔG^°=ΔH^°−TΔS^°=−RTlnKb where Kb is the binding constant and R is the universal gas constant. To determine the thermodynamic parameters, the van’t Hoff plot w ...

[2] = 297 K, BSA 1.0 µM, phosphate buffer
[3] = 308 K, BSA 1.0 µM, phosphate buffer

T1 sequence (P02769 25-607): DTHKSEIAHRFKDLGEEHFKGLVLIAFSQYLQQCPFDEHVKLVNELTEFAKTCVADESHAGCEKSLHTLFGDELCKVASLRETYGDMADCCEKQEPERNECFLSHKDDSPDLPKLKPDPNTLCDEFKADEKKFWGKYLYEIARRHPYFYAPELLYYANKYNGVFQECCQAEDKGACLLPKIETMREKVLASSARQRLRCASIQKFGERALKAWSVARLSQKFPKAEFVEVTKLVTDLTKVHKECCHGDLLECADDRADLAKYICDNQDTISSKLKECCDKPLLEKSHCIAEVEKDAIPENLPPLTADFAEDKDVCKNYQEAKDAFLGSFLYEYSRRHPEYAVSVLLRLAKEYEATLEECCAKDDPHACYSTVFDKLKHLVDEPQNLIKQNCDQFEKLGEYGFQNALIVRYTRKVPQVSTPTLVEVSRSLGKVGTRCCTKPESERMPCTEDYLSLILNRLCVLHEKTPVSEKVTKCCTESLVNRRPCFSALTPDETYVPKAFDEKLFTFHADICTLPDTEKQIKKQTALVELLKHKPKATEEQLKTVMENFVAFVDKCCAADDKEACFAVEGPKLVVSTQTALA
Chain of bovine serum albumin (BSA) (P02769 25-607): as above

SMILES | binding constant Kb [1, 2] | binding constant Kb [1, 3] | binding constant Kb ([1]; 303 K, BSA 1.0 µM, phosphate buffer) | binding constant Kb ([1]; BSA, 297 K) | Kb constant to BSA (BSA)
N=C(N)NCCC[C@H](NC(=O)[C@H](CCCCN)NC(=O)[C@H](Cc1ccccc1F)NC(=O)[C@@H]1CCCN1C(=O)[C@H](CCCN)NC(=O)CNC(=O)[C@H](CCN)NC(=O)[C@H](CCN)NC(=O)[C@@H](N)CCCCN)C(=O)O [L3, Lys-Dab-Dab-Gly-Orn-Pro-Phe(2-F)-Lys-Arg] (H-K[Dab][Dab]G[Orn]P[Phe(2-F)]KR-OH) | 2.52 ± 0.07 × 10^4 dm^3mol^−1 | 0.76 ± 0.03 × 10^4 dm^3mol^−1 | – | – | –
C[C@H](NC(=O)[C@H](CCN)NC(=O)[C@@H](N)CCCCN)C(=O)NCC(=O)N[C@@H](CCCN)C(=O)N1CCC[C@H]1C(=O)N[C@@H](Cc1c[nH]cn1)C(=O)N[C@@H](CCCCN)C(=O)N[C@@H](CCCNC(=N)N)C(=O)O [L2, Lys-Dab-Ala-Gly-Orn-Pro-His-Lys-Arg] (H-K[Dab]AG[Orn]PHKR-OH) | 3.39 ± 0.06 × 10^4 dm^3mol^−1 | 0.55 ± 0.02 × 10^4 dm^3mol^−1 | 1.10 ± 0.05 × 10^4 dm^3mol^−1 | 3.39 × 10^4 dm^3mol^−1 | –
CS(=O)(=O)CCNCc1ccc(-c2ccc3ncnc(Nc4ccc(OCc5cccc(F)c5)c(Cl)c4)c3c2)o1 [lapatinib] | – | – | – | – | 2.24 × 10^5 dm^3mol^−1
COc1cc2ncnc(Nc3ccc(F)c(Cl)c3)c2cc1OCCCN1CCOCC1 [gefitinib] | – | – | – | – | 8.32 × 10^4 dm^3mol^−1
CCN(CC)CCNC(=O)c1c(C)[nH]c(/C=C2\C(=O)Nc3ccc(F)cc32)c1C [sunitinib] | – | – | – | – | 1.32 × 10^5 dm^3mol^−1
